Laboratory results as given in patent US7998951B2, “HCV NS5B inhibitors” (Bristol-Myers Squibb Company, priority 2007, dated 2011).

Key:
[1] = target: T1, HCV NS5B RdRp genotype 1b (Hepatitis C virus genotype 1b, UniProt Q9WMX2); test: HCV NS5B RdRp enzyme assay (preincubation protocol); assay type: biochemical
T1 construct: The protein was expressed with an 18 amino acid C-terminal truncation to enhance the solubility; made in house; host or cells: E. coli BL21 (DE3)
Procedure: HCV NS5B RdRp cloning, expression, and purification. The cDNA encoding the NS5B protein of HCV, genotype 1b, was cloned into the pET21a expression vector. The protein was expressed with an 18 amino acid C-terminal truncation to enhance the solubility. The E. coli competent cell line BL21 (DE3) was used for expression of the protein. Cultures were grown at 37° C. for ˜4 hours until the cultures reached an optical density of 2.0 at 600 nm. The cultures were cooled to 20° C. and induced with 1 mM IPTG. Fresh ampicillin was added to a final concentration of 50 μg/ml and the cells were grown overnight at 20° C.
Cell pellets (3 L) were lysed for purification to yield 15-24 mgs of purified NS5B. The lysis buffer consisted of 20 mM Tris-HCl, pH 7.4, 500 mM NaCl, 0.5% triton X-100, 1 mM DTT, 1 mM EDTA, 20% glycerol, 0.5 mg/ml lysozyme, 10 mM MgCl2, 15 ug/ml deoxyribonuclease I, and Complete TM protease inhibitor tablets (Roche). After addition of the lysis buffer, frozen cell pellets were resuspended using a tissue homogenizer. To reduce the viscosity of the sample, aliquots of the lysate were sonicated on ice using a microtip attached to a Branson sonicator. The sonicated lysate was centrifuged at 100,000×g for 1 hr at 4° C. and filtered through a 0.2 μm filter unit (Corning).
The protein was purified using three sequential chromatography steps: Heparin sepharose CL-6B, polyU sepharose 4B, and Hitrap SP sepharose (Pharmacia). The chromatography buffers were identical to the lysis buffer but contained no lysozyme, deoxyribonuclease I, MgCl2 or protease inhibitor and the NaCl concentration of the buffer was adjusted according to the requirements for charging the protein onto the column. Each column was eluted with a NaCl gradient which varied in length from 5-50 column volumes depending on the column type. After the final chromatography step, the resulting purity of the enzyme is >90% based on SDS-PAGE analysis. The enzyme was aliquoted and stored at −80° C.
Standard HCV NS5B RdRp enzyme assay. HCV RdRp genotype 1b assays were run in a final volume of 60 μl in 96 well plates (Costar 3912). The assay buffer is composed of 20 mM Hepes, pH 7.5, 2.5 mM KCl, 2.5 mM MgCl2, 1 mM DTT, 1.6 U RNAse inhibitor (Promega N2515), 0.1 mg/ml BSA (Promega R3961), and 2% glycerol. All compounds were serially diluted (3-fold) in DMSO and diluted further in water such that the final concentration of DMSO in the assay was 2%. HCV RdRp genotype 1b enzyme was used at a final concentration of 28 nM. A polyA template was used at 6 nM, and a biotinylated oligo-dT12 primer was used at 180 nM final concentration. Template was obtained commercially (Amersham 27-4110). Biotinylated primer was prepared by Sigma Genosys. 3H-UTP was used at 0.6 μCi (0.29 μM total UTP). Reactions were initiated by the addition of enzyme, incubated at 30° C. for 60 min, and stopped by adding 25 μl of 50 mM EDTA containing SPA beads (4 μg/μl, Amersham RPNQ 0007). Plates were read on a Packard Top Count NXT after >1 hr incubation at room temperature.
Modified HCV NS5B RdRp enzyme assay. A modified enzyme assay was performed essentially as described for the standard enzyme assay except for the following: The biotinylated oligo dT12 primer was precaptured on streptavidin-coated SPA beads by mixing primer and beads in assay buffer and incubating at room temperature for one hour. Unbound primer was removed after centrifugation. The primer-bound beads were resuspended in 20 mM Hepes buffer, pH 7.5 and used in the assay at final concentrations of 20 nM primer and 0.67 μg/μl beads. Order of addition in the assay: enzyme (14 nM) was added to diluted compound followed by the addition of a mixture of template (0.2 nM), 3H-UTP (0.6 μCi, 0.29 μM), and primer-bound beads, to initiate the reaction; concentrations given are final. Reactions were allowed to proceed for 4 hours at 30° C.
IC50 values for compounds were determined using seven different [I]. […]

HCV replicon cells = test: HCV replicon FRET assay; assay type: cell-based; details: Hepatitis C virus
Description: FRET Assay Preparation. To perform the HCV FRET screening assay, 96-well cell culture plates were used. The FRET peptide (Anaspec, Inc.) (Taliani et al., Anal. Biochem. 1996, 240, 60-67) contains a fluorescence donor, EDANS, near one end of the peptide and an acceptor, DABCYL, near the other end. The fluorescence of the peptide is quenched by […] resonance energy transfer (RET) between the donor and the acceptor, but as the NS3 protease cleaves the peptide the products are released from RET quenching and the fluorescence of the donor becomes apparent. The assay reagent was made as follows: 5× cell Luciferase cell culture lysis reagent from Promega (#E153A) diluted to 1× with dH2O, NaCl added to 150 mM final, the FRET peptide diluted to 20 uM final from a 2 mM stock.
To prepare plates, HCV replicon cells, with or without a Renilla luciferase reporter gene, were trypsinized and placed into each well of a 96-well plate with titrated test compounds added in columns 3 through 12; columns 1 and 2 contained a control compound (HCV protease inhibitor), and the bottom row contained cells without compound. The plates were then placed in a CO2 incubator at 37° C.
Assays. Subsequent to addition of the test compounds described above (FRET Assay Preparation), at various times the plate was removed and Alamar blue solution (Trek Diagnostics, #00-100) was added per well as a measure of cellular toxicity. After reading in a Cytoflour 4000 instrument (PE Biosystems), plates were rinsed with PBS and then used for FRET assay by the addition of 30 ul of the FRET peptide assay reagent described above (FRET Assay Preparation) per well. The plate was then placed into the Cytoflour 4000 instrument which had been set to 340 excite/490 emission, automatic mode for 20 cycles and the plate read in a kinetic mode. Typically, the signal to noise using an endpoint analysis after the reads was at least three-fold. Alternatively, after Alamar blue reading, plates were rinsed with PBS, 50 ul of DMEM (high glucose) without phenol red was added and plates were then used for luciferase assay using the Promega Dual-Glo Luciferase Assay System.
Compound analysis was determined by quantification of the relative HCV replicon inhibition and the relative cytotoxicity values. To calculate cytoxicity values, the average Alamar Blue fluorescence signals from the control wells were set as 100% non-toxic. The individual signals in each of the compound test wells were then divided by the average control signal and multiplied by 100% to determine […]. To calculate the HCV replicon inhibition values, an average background value was obtained from the two wells containing the highest amount of HCV protease inhibitor at the end of the assay period. These numbers were similar to those obtained from naïve Huh-7 cells.
The background numbers were then subtracted from the average signal obtained from the control wells and this number was used as 100% activity. The individual signals in each of the compound test wells were then divided by the averaged control values after background subtraction and multiplied by 100% to determine percent activity. EC50 values for a protease inhibitor titration were calculated as the concentration which caused a 50% reduction in FRET or luciferase activity. The two numbers generated for the compound plate, percent cytotoxicity and percent activity were used to determine compounds of interest for further analysis.

T1 sequence (Q9WMX2 2420-2992): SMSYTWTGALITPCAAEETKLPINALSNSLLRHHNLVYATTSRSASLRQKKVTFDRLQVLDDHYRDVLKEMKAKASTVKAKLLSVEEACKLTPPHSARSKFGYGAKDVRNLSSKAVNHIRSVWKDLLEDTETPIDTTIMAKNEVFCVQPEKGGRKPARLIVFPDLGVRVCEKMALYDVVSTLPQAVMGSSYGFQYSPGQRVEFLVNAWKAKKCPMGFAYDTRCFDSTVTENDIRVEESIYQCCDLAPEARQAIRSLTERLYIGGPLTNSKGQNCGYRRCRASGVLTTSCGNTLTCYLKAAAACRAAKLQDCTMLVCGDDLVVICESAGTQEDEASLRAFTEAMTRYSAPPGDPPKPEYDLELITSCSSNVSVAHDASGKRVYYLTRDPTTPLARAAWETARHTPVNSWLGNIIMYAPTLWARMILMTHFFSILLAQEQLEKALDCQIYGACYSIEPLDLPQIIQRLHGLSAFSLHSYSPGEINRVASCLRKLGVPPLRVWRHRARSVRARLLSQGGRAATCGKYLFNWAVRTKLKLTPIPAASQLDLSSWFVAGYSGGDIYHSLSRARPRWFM

## COC(=O)c1ccc2c(C3CCCCC3)c(-c3ccccc3)n3c2c1CCC3
[1]
  IC50: > 10000 nM
HCV replicon cells
  EC50: > 120 nM

## O=C(O)c1ccc2c(C3CCCCC3)c(-c3ccccc3)n3c2c1CCCC3
[1]
  IC50: > 1000 nM
HCV replicon cells
  EC50: > 1000 nM

## O=C(O)c1ccc2c(C3CCCCC3)c(-c3ccccc3)n3c2c1C=CCC3
[1]
  IC50: > 1000 nM
HCV replicon cells
  EC50: > 1000 nM

## COC(=O)c1ccc2c(C3CCCCC3)c(-c3ccccc3)n3c2c1C=CCC3
[1]
  IC50: > 10000 nM
HCV replicon cells
  EC50: > 120 nM

## O=C(O)c1ccc2c(C3CCCCC3)c(-c3ccccc3)n3c2c1CCC3C(=O)N1CCOCC1 (stereo not drawn)
[1]
  IC50: 30 to 1000 nM
HCV replicon cells
  EC50: 30 to 1000 nM

## COC(=O)c1ccc2c(C3CCCCC3)c(-c3ccccc3)n3c2c1CCC3C(=O)OC (stereo not drawn)
[1]
  IC50: > 10000 nM
HCV replicon cells
  EC50: > 1000 nM

## COC(=O)c1ccc2c(C3CCCCC3)c(-c3ccccc3)n3c2c1CCC3C(=O)O (stereo not drawn)
[1]
  IC50: > 1000 nM
HCV replicon cells
  EC50: > 120 nM

## COC(=O)c1ccc2c(C3CCCCC3)c(-c3ccccc3)n3c2c1CCC3C(=O)N1CCOCC1 (stereo not drawn)
[1]
  IC50: > 1000 nM
HCV replicon cells
  EC50: > 120 nM

## CN(C)S(=O)(=O)NC(=O)c1ccc2c(C3CCCCC3)c(-c3ccccc3)n3c2c1CCC3C(=O)N1CCOCC1 (stereo not drawn)
[1]
  IC50: 1000 to 10000 nM
HCV replicon cells
  EC50: 1000 to 10000 nM

## CCOC(=O)/C=C/c1ccc(NC(=O)C2(NC(=O)c3ccc4c(C5CCCCC5)c(-c5ccccc5)n5c4c3CCC5C(=O)N3CCOCC3)CCCC2)cc1 (stereo not drawn)
[1]
  IC50: 1000 to 10000 nM
HCV replicon cells
  EC50: 30 to 1000 nM

## O=C(O)/C=C/c1ccc(NC(=O)C2(NC(=O)c3ccc4c(C5CCCCC5)c(-c5ccccc5)n5c4c3CCC5C(=O)N3CCOCC3)CCCC2)cc1 (stereo not drawn)
[1]
  IC50: 30 to 1000 nM
HCV replicon cells
  EC50: 1000 to 10000 nM

## O=C(O)c1ccc2c(C3CCCCC3)c(-c3ccccc3)n3c2c1OCC3
[1]
  IC50: 30 to 1000 nM
HCV replicon cells
  EC50: 1000 to 10000 nM

## CN(C)S(=O)(=O)NC(=O)c1ccc2c(C3CCCCC3)c(-c3ccccc3)n3c2c1OCC3
[1]
  IC50: 1000 to 10000 nM
HCV replicon cells
  EC50: 1000 to 10000 nM

## CCOC(=O)/C=C/c1ccc(NC(=O)C2(NC(=O)c3ccc4c(C5CCCCC5)c(-c5ccccc5)n5c4c3OCC5)CCCC2)cc1
[1]
  IC50: 30 to 1000 nM
HCV replicon cells
  EC50: > 1000 nM

## O=C(O)/C=C/c1ccc(NC(=O)C2(NC(=O)c3ccc4c(C5CCCCC5)c(-c5ccccc5)n5c4c3OCC5)CCCC2)cc1
[1]
  IC50: 30 to 1000 nM
HCV replicon cells
  EC50: 30 to 1000 nM

## O=C(NS(=O)(=O)C1CC1)c1ccc2c(C3CCCCC3)c(-c3ccccc3)n3c2c1CCC3C(=O)N1CCOCC1 (stereo not drawn)
[1]
  IC50: 1000 to 10000 nM
HCV replicon cells
  EC50: > 10000 nM

## C[C@@H]1CN(C(=O)C2CCc3c(C(=O)O)ccc4c(C5CCCCC5)c(-c5ccccc5)n2c34)C[C@H](C)O1 (stereo partly drawn)
[1]
  IC50: > 1000 nM
HCV replicon cells
  EC50: 1000 to 10000 nM

## O=C(O)c1ccc2c(C3CCCCC3)c(-c3ccccc3)n3c2c1CCC3C(=O)O (stereo not drawn)
[1]
  IC50: > 1000 nM
HCV replicon cells
  EC50: > 10000 nM

## COC(=O)c1ccc2c(C3CCCCC3)c(-c3ccccc3)n3c2c1OCC3
[1]
  IC50: 1000 to 10000 nM
HCV replicon cells
  EC50: > 120 nM

## O=C(O)/C=C\c1ccc(NC(=O)C2(NC(=O)c3ccc4c(C5CCCCC5)c(-c5ccccc5)n5c4c3OCC5)CCCC2)cc1
[1]
  IC50: 30 to 1000 nM
HCV replicon cells
  EC50: 30 to 1000 nM

## COc1ccc(-c2c(C3CCCCC3)c3ccc(C(=O)NC4(C(=O)Nc5ccc(C=CC(=O)O)cc5)CCCC4)c4c3n2CCO4)cc1
[1]
  IC50: 30 to 1000 nM
HCV replicon cells
  EC50: 30 to 1000 nM

## CCOC(=O)/C=C/c1ccc(NC(=O)C2(NC(=O)c3ccc4c(C5CCCCC5)c(-c5ccc(OC)cc5)n5c4c3OCC5)CCCC2)cc1
[1]
  IC50: 30 to 1000 nM
HCV replicon cells
  EC50: > 1000 nM

## COC(=O)c1ccc2c(C3CCCCC3)c(-c3ccccc3)n3c2c1OC(C(=O)OC)C3 (stereo not drawn)
[1]
  IC50: > 1000 nM
HCV replicon cells
  EC50: > 1000 nM

## COc1ccc(-c2c(C3CCCCC3)c3ccc(C(=O)O)c4c3n2CCO4)cc1
[1]
  IC50: 30 to 1000 nM
HCV replicon cells
  EC50: 1000 to 10000 nM
